Here are results for three compounds from the NIST ThermoML archive (doi:10.1016/j.fluid.2014.03.001).

± gives the expanded uncertainty stated by the source.

The conditions of this data set: Crystal 1; DTA.
As for `CCCCCCCCCCCCCC(=O)OCC` [ethyl tetradecanoate], the Normal melting temperature was found to be 14.2 ± 0.5 °C.
In the case of `CCCCCCCCCCCCCCCCCC(=O)OCC` [ethyl octadecanoate], the Normal melting temperature was 34.7 ± 0.7 °C.
The figure for `CCCCCCCC/C=C\CCCCCCCC(=O)OCC` [ethyl (Z)-9-octadeceneoate] is -18.8 ± 0.7 °C.
